Reference: ChEMBL document CHEMBL5154712, “Activators of the Anticipatory Unfolded Protein Response with Enhanced Selectivity for Estrogen Receptor Positive Breast Cancer” (J Med Chem, 2022)
Activity calls are given as the source filed them. The rule behind the calls is not given here.

Legend:
MDA-MB-231 [1] = test: Anticancer activity against ERalpha negative human MDA-MB-231 cells assessed as cell growth inhibition incubated for 72 hrs by alamar blue assay; format: functional, cell-based; conditions: MDA-MB-231, 72 h
[2] = Volume of distribution at steady state in CD-1 mouse at 20 mg/kg, iv by LC-MS/MS analysis; format: ADME, organism-based; conditions: mouse, in vivo, iv, 20 mg/kg
MDA-MB-231 [3] = test: Anticancer activity against ERalpha negative human MDA-MB-231 cells assessed as cell growth inhibition incubated for 24 hrs by alamar blue assay; format: functional, cell-based; conditions: MDA-MB-231, 24 h
HCT-116 [4] = test: Induction of ER stress in human HCT-116 cells assessed as increase in ATF6alpha-p90 cleavage at 0.1 to 10 uM measured after 24 to 48 hrs by Western blot analysis; format: functional, cell-based; conditions: dose 0.1-10 µM, time 24-48 hrs
HCT-116 [5] = test: Induction of ER stress in human HCT-116 cells assessed as increase in phospho-EIF2alpha expression at 0.1 to 10 uM measured after 24 to 48 hrs by Western blot analysis; format: functional, cell-based; conditions: dose 0.1-10 µM, time 24-48 hrs
MDA-MB-436 [6] = test: Anticancer activity against ERalpha negative human MDA-MB-436 cells assessed as cell growth inhibition incubated for 72 hrs by alamar blue assay; format: functional, cell-based; conditions: MDA-MB-436, 72 h
MCF7 [7] = test: Anticancer activity against human MCF7 cells assessed as reduction in cell viability incubated for 24 hrs in presence of 10% CD-FBS and 17-beta-estradiol by alamar blue assay; format: functional, cell-based
[8] = AUC in CD-1 mouse at 20 mg/kg, iv by LC-MS/MS analysis; format: ADME, organism-based; parameters: dose 20 mg/kg, route iv; conditions: mouse, in vivo
[9] = Toxicity in iv dosed Sprague-Dawley rat assessed as maximum tolerated dose administered as single dose; format: organism-based; conditions: in vivo
[10] = Toxicity in po dosed CD-1 mouse assessed as maximum tolerated dose administered as single dose; format: organism-based; conditions: in vivo
[11] = MRT in CD-1 mouse at 20 mg/kg, iv by LC-MS/MS analysis; format: ADME, organism-based; conditions: mouse, in vivo, iv, 20 mg/kg
MCF7 [12] = test: Anticancer activity against human MCF7 cells assessed as reduction in cell viability incubated for 24 hrs in presence of 10% CD-FBS by alamar blue assay; format: functional, cell-based
MCF7 [13] = test: Anticancer activity against human MCF7 cells assessed as cell growth inhibition incubated for 24 hrs by alamar blue assay; format: functional, cell-based; conditions: MCF7, 24 h
T47D [14] = test: Anticancer activity against ERalpha positive human T47D cells assessed as cell growth inhibition incubated for 24 hrs by alamar blue assay; format: functional, cell-based
HCT-116 [15] = test: Anticancer activity against ERalpha negative human HCT-116 cells assessed as cell growth inhibition incubated for 72 hrs by alamar blue assay; format: functional, cell-based; conditions: HCT-116, 72 h
HT-29 [16] = test: Anticancer activity against ERalpha negative human HT-29 cells assessed as cell growth inhibition incubated for 72 hrs by alamar blue assay; format: functional, cell-based; conditions: HT-29, 72 h
HT-29 [17] = test: Anticancer activity against ERalpha negative human HT-29 cells assessed as cell growth inhibition incubated for 24 hrs by alamar blue assay; format: functional, cell-based; conditions: HT-29, 24 h
MDA-MB-436 [18] = test: Anticancer activity against ERalpha negative human MDA-MB-436 cells assessed as cell growth inhibition incubated for 24 hrs by alamar blue assay; format: functional, cell-based; conditions: MDA-MB-436, 24 h
HCT-116 [19] = test: Anticancer activity against ERalpha negative human HCT-116 cells assessed as cell growth inhibition incubated for 24 hrs by alamar blue assay; format: functional, cell-based; conditions: HCT-116, 24 h
MDA-MB-231 [20] = test: Anticancer activity against ERalpha negative human MDA-MB-231 cells assessed as cell growth inhibition incubated for 168 hrs by alamar blue assay; format: functional, cell-based; conditions: MDA-MB-231, 168 h
T47D [21] = test: Anticancer activity against human T47D cells harbouring ERalphaD538G mutant assessed as cell growth inhibition incubated for 24 hrs by alamar blue assay; format: functional, cell-based
[22] = Oral bioavailability in mouse; format: ADME, organism-based; conditions: in vivo
[23] = Half life in mouse; format: ADME, organism-based; conditions: in vivo
MCF7 [24] = test: Antitumor activity against human MCF7 cells xenografted in athymic nude mouse assessed as reduction in tumor growth at 5 mg/kg, iv administered once a week for three doses administered for 14 days; format: functional, organism-based; conditions: time 14.0 day
[25] = Cmax in CD-1 mouse at 20 mg/kg, iv by LC-MS/MS analysis; format: ADME, organism-based; parameters: dose 20 mg/kg, route iv; conditions: mouse, in vivo
T47D [26] = test: Anticancer activity against human T47D cells harbouring ERalphaY537S mutant assessed as cell growth inhibition incubated for 24 hrs by alamar blue assay; format: functional, cell-based
[27] = Stability of the compound in simulated gastric fluid assessed as compound remaining measured after 120 mins by LC-MS/MS; format: ADME; conditions: read-out: Stability
[28] = Toxicity in athymic nude mouse xenografted with human MCF7 cells assessed as change in body weight at 5 mg/kg, iv administered once a week for three doses administered for 14 days; format: organism-based; conditions: in vivo, 336 h, time 14 day
[29] = Half life in CD-1 mouse at 20 mg/kg, iv by LC-MS/MS analysis; format: ADME, organism-based; conditions: mouse, in vivo, iv, 20 mg/kg
MCF7 [30] = test: Anticancer activity against ERalpha positive human MCF7 cells assessed as cell growth inhibition incubated for 72 hrs by alamar blue assay; format: functional, cell-based; conditions: MCF7, 72 h
[31] = Selectivity ratio of IC50 for human MDA-MB-231 cells to IC50 for human MCF7 cells; format: functional
[32] = Selectivity ratio of IC50 for human HT-29 cells to IC50 for human MCF7 cells; format: functional
[33] = Selectivity ratio of IC50 for human HCT-116 cells to IC50 for human MCF7 cells; format: functional

`O=C1Nc2c(C(F)(F)F)cccc2C1(c1ccc(O)cc1)c1ccc(OC(F)(F)F)cc1` (centres undefined) showed an IC50 (MDA-MB-231 [1]) of 8000 nM, a Vdss [2] of 10.1 L/kg and an IC50 (MDA-MB-231 [3]) of 23000 nM. For the same molecule, the Activity (HCT-116 [4]) was “Active”, the Activity (HCT-116 [5]) was “Active” and the IC50 (MDA-MB-436 [6]) was 14000 nM. For the same molecule, the Activity (MCF7 [7]) was “Active”, the AUC [8] was 10100 ng·h/mL and the MTD [9] was 10 mg/kg. The MTD [10] was > 150 mg/kg, the MRT [11] was 5.1 h and the Activity (MCF7 [12]) was “Active”. The IC50 (MCF7 [13]) was 20 nM, the IC50 (T47D [14]) was 20 nM and the IC50 (HCT-116 [15]) was 260 nM. For the same molecule, the IC50 (HT-29 [16]) was 250 nM, the IC50 (HT-29 [17]) was 210 nM and the IC50 (MDA-MB-436 [18]) was 22000 nM. It also gave an IC50 (HCT-116 [19]) of 11000 nM, an IC50 (MDA-MB-231 [20]) of 6000 nM and an IC50 (T47D [21]) of 15 nM. For the same molecule, the bioavailability [22] was 47%, the half-life [23] was > 2 h and the Activity (MCF7 [24]) was “Active”. The Cmax [25] was 7700 ng/mL, the IC50 (T47D [26]) was 10 nM and the remaining at 2 h [27] was 93%. For the same molecule, the Activity [28] was “Non-Toxic” and the t1/2 [29] was 0.917 h.
In the case of `O=C1Nc2c(C(F)(F)F)cccc2C1(c1ccc(O)cc1)N1CCCCC1` (centres undefined), the IC50 (MCF7 [13]) is reported as > 1000 nM.
In the case of `O=C1Nc2c(C(F)(F)F)cccc2C1(c1ccc(O)cc1)N1CCC(O)CC1` (centres undefined), the IC50 (MCF7 [13]) is reported as > 1000 nM.
For `Cc1cc(C2(c3ccc(OC(F)(F)F)cc3)C(=O)Nc3c(C(F)(F)F)cccc32)ccc1O` (centres undefined), the IC50 (MCF7 [13]) was > 1000 nM.
In the case of `O=C1Nc2c(C(F)(F)F)cccc2C1(c1ccc(OC(F)(F)F)cc1)c1ccc(O)cc1F` (centres undefined), the IC50 (MCF7 [13]) is reported as 177 nM.
Work on `O=C1Nc2c(C(F)(F)F)cccc2[C@]1(c1ccc(OC(F)(F)F)cc1)c1ccc(O)c(O)c1` yielded an IC50 (MCF7 [13]) of 24 nM.
`O=C1Nc2c(C(F)(F)F)cccc2C1(c1ccc(OC(F)(F)F)cc1)c1ccc(O)c(O)c1` (centres undefined) gave an IC50 (MCF7 [13]) of 49 nM.
In the case of `O=C1Nc2c(C(F)(F)F)cccc2[C@@]1(c1ccc(O)cc1)N1CCCC(F)(F)C1`, the IC50 (MDA-MB-231 [1]) is reported as 22000 nM, the IC50 (MDA-MB-231 [3]) is reported as 49000 nM and the IC50 (MCF7 [30]) is reported as 33 nM. The “Ratio IC50” value [31] was 700, the IC50 (MCF7 [13]) was 39 nM and the “Ratio IC50” value [32] was 800. It also gave an IC50 (HCT-116 [15]) of 21000 nM, an IC50 (HT-29 [16]) of 25000 nM and an IC50 (HT-29 [17]) of 29000 nM. The IC50 (HCT-116 [19]) was 38000 nM, the remaining at 2 h [27] was 0% and the “Ratio IC50” value [33] was 600.
With `CC(C)c1cc(C2(c3ccc(OC(F)(F)F)cc3)C(=O)Nc3c(C(F)(F)F)cccc32)cc(C(C)C)c1O` (centres undefined) the IC50 (MCF7 [13]) was > 1000 nM.
In the case of `O=C1Nc2c(C(F)(F)F)cccc2[C@@]1(c1ccc(O)cc1)N1CCC(F)CC1`, the IC50 (MCF7 [30]) is reported as 147 nM and the IC50 (MCF7 [13]) is reported as > 1000 nM.
`O=C1Nc2c(C(F)(F)F)cccc2C1(c1ccc(O)cc1)N1CCC(OC(F)(F)F)CC1` (centres undefined) gave an IC50 (MCF7 [13]) of 135 nM.
For `O=C1Nc2c(C(F)(F)F)cccc2[C@]1(c1ccc(O)cc1)N1CC(F)(F)C(F)(F)C1`, the IC50 (MCF7 [30]) was > 1000 nM, the IC50 (MCF7 [12]; MCF7, 24 h) was > 1000 nM and the IC50 (MCF7 [13]) was > 1000 nM.
